Test results as given in US20250313879A1, “Fluorescent Probe for Detecting Peptide Bond Hydrolase” (The University of Tokyo, priority 2022, published 2025).
Numbered stars: 1 amine (or outer) side, 2 acyl side, 3 side chain; on linkers, the order of the positions; unused ones are H or OH. Square brackets hold non-standard residues; d marks the D form. Peptide text beside a SMILES is read from it. * marks the point of attachment. X2 = Cc1ccc(S(=O)(=O)O)cc1C1=C2C=CC(=N)C=C2[Si](C)(C)c2cc(N*)ccc21; X1 = Nc1ccc2c(c1)Oc1cc(N*)ccc1C21OCc2cc(S(=O)(=O)O)ccc21; Suc = O=C(CCC(=O)[*:2])[*:1]

Key:
Format in all cases: biochemical
[1] = test system: peptidase activity in human plasma sample; test: Enzyme activity assay in microdevice with human plasma, peptidase probes; details: 50 μM probe
Experimental: (§1) • 1. GP-sHMRG as a fluorescent probe for detecting peptidase activity was diluted with an assay buffer to 100 μM. The composition of the assay buffer is 100 mM HEPES-NaOH (pH 7.4), 1 mM MgCl2, 1 mM CaCl2, 1 mM DTT, 3 mM Triton X-100. • 2. Next, a human plasma sample was diluted by 2,500 times with the above assay buffer, and mixed in an equal amount with the diluted solution of the probe. At this time, the final concentrations of both are 50 μM for GP-sHMRG and 5,000 fold dilution for the human plasma sample. • 3. The mixed solution of both was then added to a microdevice, followed by the addition of sealing oil to enclose the solution in each well. • 4. The microdevice in which the solution was enclosed was incubated at 25° C. for 2 hours, and then the fluorescence intensity of each well was measured with a fluorescence microscope.
as §1, with “1. Ac-Ala-sHMRG” for “1. GP-sHMRG”, “by 250” for “by 2,500”, “for Ac-Ala-sHMRG” for “for GP-sHMRG”, “and 500” for “and 5,000”, “at 37°” for “at 25°”, “for 4” for “for 2”
• 1. Ac-GP-sSiR as a fluorescent probe for detecting peptidase activity was diluted with an assay buffer to 100 μM. The composition of the assay buffer is 100 mM HEPES-NaOH (pH 7.4), 1 mM MgCl2, 1 mM CaCl2, 1 mM DTT, 3 mM Triton X-100. • 2. […] The microdevice in which the solution was enclosed was incubated at 37° C. for 2 hours, and then the fluorescence intensity of each well was measured with a fluorescence microscope.

[2] = test system: aminopeptidase activity in human plasma sample; test: Enzyme activity assay in microdevice with human plasma, aminopeptidase probes; details: 50 μM probe
Experimental: • 1. Ala-sHMRG as a fluorescent probe for detecting aminopeptidase activity was diluted with an assay buffer to 100 μM. The composition of the assay buffer is 100 mM HEPES-NaOH (pH 7.4), 1 mM MgCl2, 0.1% BSA, 1 mM DTT, 1 mM Triton X-100, • 2. Next, a human plasma sample was diluted by 500 times with the above assay buffer, and mixed in an equal amount with the diluted solution of the probe. At this time, the final concentrations of both are 50 μM for Ala-sHMRG and 1,000 fold dilution for the human plasma sample. • 3. The mixed solution of both was then added to a microdevice, followed by the addition of sealing oil to enclose the solution in each well. • 4. The microdevice in which the solution was enclosed was incubated at 37° C. for 4 hours, and then the fluorescence intensity of each well was measured with a fluorescence microscope.
as §1, with “1. Leu-sHMRG” for “1. GP-sHMRG”, “detecting aminopeptidase” for “detecting peptidase”, “MgCl2,” for “MgCl2, 1 mM CaCl2,”, “for Leu-sHMRG” for “for GP-sHMRG”, “at 37°” for “at 25°”, “for 4” for “for 2”
(§2) • 5. Met-sHMRG as a fluorescent probe for detecting aminopeptidase activity was diluted with an assay buffer to 100 μM. The composition of the assay buffer is 100 mM HEPES-NaOH (pH 7.4), 1 mM MgCl2, 1 mM CaCl2, 1 mM DTT, 3 mM Triton X-100. • 6. Next, a human plasma sample was diluted by 500 times with the above assay buffer, and mixed in an equal amount with the diluted solution of the probe. At this time, the final concentrations of both are 50 μM for Met-sHMRG and 1,000 fold dilution for the human plasma sample. • 7. The mixed solution of both was then added to a microdevice, followed by the addition of sealing oil to enclose the solution in each well. • 8. The microdevice in which the solution was enclosed was incubated at 37° C. for 2 hours, and then the fluorescence intensity of each well was measured with a fluorescence microscope.
as §2, with “• 9. Tyr-sHMRG” for “• 5. Met-sHMRG”, “• 10.” for “• 6.”, “for Tyr-sHMRG” for “for Met-sHMRG”, “• 11.” for “• 7.”, “• 12.” for “• 8.”, “for 4” for “for 2”
• 1. Lys-sHMRG as a fluorescent probe for detecting aminopeptidase activity was diluted with an assay buffer to 100 μM. The composition of the assay buffer is 100 mM HEPES-NaOH (pH 7.4), 1 mM MgCl2, 1 mM CaCl2, 1 mM DTT, 3 mM Triton X-100. • 2. Next, a human plasma sample was diluted by 10,000 times with the above assay buffer, and mixed in an equal amount with the diluted solution of the probe. At this time, the final concentrations of both are 50 μM for Lys-sHMRG and 20,000 fold dilution for the human plasma sample. • 3. […]

[3] = test system: protease activity in human plasma sample; test: Enzyme activity assay in microdevice with human plasma, protease probes
Experimental: • 1. Suc-AAPA-sHMRG as a fluorescent probe for detecting protease activity was diluted with an assay buffer to 200 μM. The composition of the assay buffer is 100 mM HEPES-NaOH (pH 7.4), 1 mM MgCl2, 1 mM CaCl2, 1 mM DTT, 3 mM Triton X-100. • 2. Next, a human plasma sample was diluted by 250 times with the above assay buffer, and mixed in an equal amount with the diluted solution of the probe. At this time, the final concentrations of both are 100 μM for Suc-AAPA-sHMRG and 500 fold dilution for the human plasma sample. • 3. The mixed solution of both was then added to a microdevice, followed by the addition of sealing oil to enclose the solution in each well. • 4. The microdevice in which the solution was enclosed was incubated at 37° C. for 4 hours, and then the fluorescence intensity of each well was measured with a fluorescence microscope.
as §1, with “Ac-LRGG-sSiR” for “GP-sHMRG”, “protease” for “peptidase”, “10,000” for “2,500”, “20,000” for “5,000”, “37°” for “25°”
• 1. EP-sSiR as a fluorescent probe for detecting protease activity was diluted with an assay buffer to 60 μM. […] The microdevice in which the solution was enclosed was incubated at 25° C. for 2 hours, and then the fluorescence intensity of each well was measured with a fluorescence microscope.

[4] = human plasma 1,000 fold dilution, 37° C. for 2 hours
[5] = human plasma 1,000 fold dilution, 37° C. for 4 hours
[6] = human plasma 20,000 fold dilution, 37° C. for 2 hours

CC(=O)N[C@@H](C)C(=O)Nc1ccc2c(c1)Oc1cc(N)ccc1C21OCc2cc(S(=O)(=O)O)ccc21 (stereo partly shown) [Ac-Ala-sHMRG]
fluorescence intensity of wells in which the reacting enzyme was enclosed ([1]; human plasma 500 fold dilution, 37° C. for 4 hours): increase in fluorescence intensity was observed

CSCC[C@H](N)C(=O)Nc1ccc2c(c1)Oc1cc(N)ccc1C21OCc2cc(S(=O)(=O)O)ccc21 (stereo partly shown) [Met-sHMRG]
fluorescence intensity of wells in which the reacting enzyme was enclosed [2, 4]: increase in fluorescence intensity was observed

Cc1ccc(S(=O)(=O)O)cc1C1=C2C=CC(=N)C=C2[Si](C)(C)c2cc(NC(=O)C3CCCN3C(=O)[C@@H](N)CCC(=O)O)ccc21 (stereo partly shown) [EP-sSiR]
fluorescence intensity of wells in which the reacting enzyme was enclosed ([3]; 30 μM probe, human plasma 5,000 fold dilution, 25° C. for 2 hours): increase in fluorescence intensity was observed

Nc1ccc2c(c1)Oc1cc(NC(=O)[C@@H](N)Cc3ccc(O)cc3)ccc1C21OCc2cc(S(=O)(=O)O)ccc21 (stereo partly shown) [Tyr-sHMRG]
fluorescence intensity of wells in which the reacting enzyme was enclosed [2, 5]: increase in fluorescence intensity was observed

C[C@H](NC(=O)CCC(=O)O)C(=O)N[C@@H](C)C(=O)N1CCC[C@@H]1C(=O)N[C@@H](C)C(=O)Nc1ccc2c(c1)Oc1cc(N)ccc1C21OCc2cc(S(=O)(=O)O)ccc21 (stereo partly shown) [Suc-AAPA-sHMRG] (Suc-AA[dP]A-X1)
fluorescence intensity of wells in which the reacting enzyme was enclosed ([3]; 100 μM probe, human plasma 500 fold dilution, 37° C. for 4 hours): increase in fluorescence intensity was observed

CC(=O)NCC(=O)N1CCCC1C(=O)Nc1ccc2c(c1)[Si](C)(C)C1=CC(=N)C=CC1=C2c1cc(S(=O)(=O)O)ccc1C (stereo not shown) [Ac-GP-sSiR]
fluorescence intensity of wells in which the reacting enzyme was enclosed [1, 6]: increase in fluorescence intensity was observed

C[C@H](N)C(=O)Nc1ccc2c(c1)Oc1cc(N)ccc1C21OCc2cc(S(=O)(=O)O)ccc21 (stereo partly shown) [Ala-sHMRG]
fluorescence intensity of wells in which the reacting enzyme was enclosed [2, 5]: increase in fluorescence intensity was observed

CC(C)C[C@H](N)C(=O)Nc1ccc2c(c1)Oc1cc(N)ccc1C21OCc2cc(S(=O)(=O)O)ccc21 (stereo partly shown) [Leu-sHMRG]
fluorescence intensity of wells in which the reacting enzyme was enclosed ([2]; human plasma 5,000 fold dilution, 37° C. for 4 hours): increase in fluorescence intensity was observed

CC(=O)N[C@@H](CC(C)C)C(=O)N[C@H](CCCNC(=N)N)C(=O)NCC(=O)NCC(=O)Nc1ccc2c(c1)[Si](C)(C)C1=CC(=N)C=CC1=C2c1cc(S(=O)(=O)O)ccc1C [Ac-LRGG-sSiR] (Ac-L[dR]GG-X2)
fluorescence intensity of wells in which the reacting enzyme was enclosed ([3]; 50 μM probe, human plasma 20,000 fold dilution, 37° C. for 2 hours): increase in fluorescence intensity was observed

NCCCC[C@H](N)C(=O)Nc1ccc2c(c1)Oc1cc(N)ccc1C21OCc2cc(S(=O)(=O)O)ccc21 (stereo partly shown) [Lys-sHMRG]
fluorescence intensity of wells in which the reacting enzyme was enclosed [2, 6]: increase in fluorescence intensity was observed

Nc1ccc2c(c1)Oc1cc(NC(=O)CC[C@@H](N)C(=O)O)ccc1C21OCc2cc(S(=O)(=O)O)ccc21 (stereo partly shown) [gGlu-sHMRG]
fluorescence intensity of wells in which the reacting enzyme was enclosed [2, 4]: increase in fluorescence intensity was observed

Cc1ccc(S(=O)(=O)O)cc1C1=C2C=CC(=N)C=C2[Si](C)(C)c2cc(NC(=O)[C@@H](N)Cc3c[nH]c4ccccc34)ccc21 [Trp-sSiR]
fluorescence intensity of wells in which the reacting enzyme was enclosed [2, 5]: increase in fluorescence intensity was observed

Cc1ccc(S(=O)(=O)O)cc1C1=C2C=CC(=N)C=C2[Si](C)(C)c2cc(NC(=O)[C@@H](N)CCCNC(=N)N)ccc21 [Arg-sSiR]
fluorescence intensity of wells in which the reacting enzyme was enclosed [2, 5]: increase in fluorescence intensity was observed
